Reference: publication PMC6472066, “Characterisation of three novel α-L-arabinofuranosidases from a compost metagenome” (BMC Biotechnology, 2019)

Tests used:
Test in all cases: pNP release at […] nm, Michaelis-Menten fit
AFase-E3 = system: T1, AFase-E3; assay type: biochemical, metagenome: high temperature compost; conditions: at the enzyme's pH and temperature optima (pH 4.0, 60 °C), 1 min; read-out: KM in mM (Std. error)
T1 construct: full-length ORF, 510 residues, 58 kDa; C-terminal His tag (pET21a, NdeI-HindIII); E. coli BL21(DE3); homo-hexamer

AFase-D3 = system: T2, AFase-D3; assay type: biochemical, metagenome: high temperature compost; conditions: at the enzyme's pH and temperature optima (pH 4.5, 25 °C), 1 min; abstract gives KM range up to 0.43 mM; read-out: KM in mM (Std. error)
T2 construct: full-length ORF, 494 residues, 56 kDa; C-terminal His tag (pET21a, NdeI-XhoI); E. coli BL21(DE3); homo-hexamer; primer-encoded N-terminus MNNVVINV

AFase-H4 = system: T3, AFase-H4; assay type: biochemical, uncultured bacterium (compost metagenome); conditions: at the enzyme's pH and temperature optima (pH 5.0, 60 °C), 1 min; read-out: KM in mM (Std. error)
T3 construct: full-length ORF, 489 residues, 55 kDa, no signal peptide; C-terminal His tag (pET21a, NdeI-XhoI); E. coli BL21(DE3); homo-hexamer

Molecule `O=[N+]([O-])c1ccc(O[C@@H]2O[C@@H](CO)[C@H](O)[C@H]2O)cc1` [pNP-α-L-arabinofuranoside] has a Km (AFase-E3) of 0.33 mM, a Km (AFase-D3) of 0.38 mM and a Km (AFase-H4) of 0.31 mM.
